# EPA's ToxValDB 9.5 (doi:10.2903/j.efsa.2019.5595)
# Key:
# Apis mellifera = settings: acute, duration: 48 hours, mortality
# Bibionidae = settings: chronic/long-term; duration: 29 days
# Cyprinodon variegatus = settings: acute; duration: 96 hours; oral; feed; mortality
# Cyprinus carpio = settings: chronic/long-term
# Hyalella azteca = settings: acute; duration: 96 hours; mortality
# Lepomis macrochirus = settings: acute; oral; feed; mortality
# Oncorhynchus mykiss = settings: acute; duration: 96 hours; oral; feed; mortality
# Oryctolagus sp. = settings: developmental; development
# Tagia sp. = settings: acute; duration: 14 days; mortality
# Typhlodromus pyri = test: LR50; higher = less toxic; settings: acute; mortality
compound,measurement,setting,value
N#CN=C1SCCN1Cc1ccc(Cl)nc1 [Thiacloprid],LD50,Apis mellifera; dermal,38.8 µg/piece
same,LD50,"Apis mellifera; oral, unspecified",17.3 µg/piece
same,NOEC,Bibionidae,0.63 µg/kg
same,LC50,Cyprinodon variegatus,19.7 µg/mL
same,NOEC,Cyprinus carpio,4.5 µg/L
same,LC50,Hyalella azteca,> 47.6 µg/mL
same,LC50,Lepomis macrochirus,> 78.6 µg/mL
same,LC50,Oncorhynchus mykiss,> 90.1 µg/mL
same,NOAEL,Oryctolagus sp.,2 mg/kg-day
same,LD50,"Rattus norvegicus; acute, oral, Fischer 344, mortality",177 mg/kg-day
same,NOAEL,"Rattus norvegicus; chronic, histopathology: nonneoplastic",1.2 mg/kg-day
same,NOAEL,"Rattus norvegicus; developmental, development",2 mg/kg-day
same,NOAEL,"Rattus norvegicus; reproduction developmental, reproduction",3.3 mg/kg-day
same,NOAEL,"Serinus canaria; acute, oral, unspecified, mortality",15 mg/kg-day
same,LD50,Serinus canaria; chronic/long-term,3.5 mg/kg-day
same,LC50,Tagia sp.,105 mg/kg
same,LR50,Typhlodromus pyri,0.331 g/ha
